Data published in ChEMBL document CHEMBL1201862, “PubChem BioAssay data set” (2004).
The source made the active and inactive calls.

Tests used:
Cytochrome P450 2D6 = Cytochrome P450 2D6 (Homo sapiens, UniProt P10635);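 also: CYP2D6 member of a cytochrome P450 panel assay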
[1] = HepG2 cell cytotoxicity, dose response, cytotoxicity control for Shn3 inhibitor project, CellTiter-Glo, cherry-picked (AID 624134); format: functional, cell-based
[2] = Luminescence Cell-Based Dose Retest to Confirm Inhibitors of Cancer Stem Cells. [Related pubchem assays (depositor defined):AID2717, AID2721]; format: functional; conditions: Homo sapiens
Paired box protein Pax-8 = Paired box protein Pax-8 (Homo sapiens, UniProt Q06710); assay: inhibitors of PAX8-driven TPO luciferase reporter, dose response, RMG-I cells, cherry-pick (AID 687027); format: functional, cell-based;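 also: luciferase reporter driven by Pax8 target thyroperoxidase promoter measured by SteadyGlo luminescence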
Chain of Paired box protein Pax-8 (Q06710 whole entry): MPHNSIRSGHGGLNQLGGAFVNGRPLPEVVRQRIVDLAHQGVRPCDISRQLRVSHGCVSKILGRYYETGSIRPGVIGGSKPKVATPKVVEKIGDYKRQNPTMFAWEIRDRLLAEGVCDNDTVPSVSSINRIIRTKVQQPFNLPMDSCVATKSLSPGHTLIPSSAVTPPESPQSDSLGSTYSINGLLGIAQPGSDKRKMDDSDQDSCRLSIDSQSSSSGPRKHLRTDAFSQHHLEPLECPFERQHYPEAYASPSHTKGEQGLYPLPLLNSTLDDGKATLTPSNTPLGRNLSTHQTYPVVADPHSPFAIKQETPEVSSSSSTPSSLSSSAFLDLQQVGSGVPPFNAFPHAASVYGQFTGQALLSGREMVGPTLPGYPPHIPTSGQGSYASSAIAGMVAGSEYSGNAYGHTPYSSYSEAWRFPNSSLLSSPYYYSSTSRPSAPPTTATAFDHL

Melanocortin receptor 4 = Melanocortin receptor 4 (Homo sapiens, UniProt P32245); assay: MC4R antagonist potency on cAMP, dose response, cell-based, TR-FRET, biased antagonists (AID 602298); format: functional;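 also: antagonist potency against agonist-stimulated cAMP production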
Chain of Melanocortin receptor 4 (P32245 whole entry): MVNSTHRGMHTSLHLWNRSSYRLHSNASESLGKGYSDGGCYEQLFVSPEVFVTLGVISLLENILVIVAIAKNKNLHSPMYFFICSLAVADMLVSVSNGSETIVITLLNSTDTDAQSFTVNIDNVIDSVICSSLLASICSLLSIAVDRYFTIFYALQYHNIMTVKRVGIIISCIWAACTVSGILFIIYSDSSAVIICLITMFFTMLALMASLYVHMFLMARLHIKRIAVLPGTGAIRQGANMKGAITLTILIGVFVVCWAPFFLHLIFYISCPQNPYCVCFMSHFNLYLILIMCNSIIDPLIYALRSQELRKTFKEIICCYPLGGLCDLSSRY

[3] = inhibitors of intracellular T. cruzi replication, confirmation, NIH3T3 host cells, beta-gal luminescence (AID 2044); format: functional, cell-based;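 also: intracellular parasites grown in NIH/3T3 mouse fibroblasts as host cells; luminescent beta-galactosidase reporter signal from transgenic T. cruzi replicating inside host cells; inhibitors lower the luminescence signal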
[4] = test system: Streptococcus sp. 'group A'; assay: growth inhibition of control SK(-) GAS strain, dose response, counter-screen for streptokinase expression inhibitor project, luminescence, kanamycin, BacTiterGlo, confirmation (AID 1900); format: functional, organism-based
[5] = Shn3 3'UTR reporter inhibitors, dose response, cell-based, Clone20 osteoblasts, firefly luciferase, cherry-picked (AID 624132); format: functional;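 also: firefly luciferase luminescence from reporter carrying the Shn3 3'UTR in osteoblasts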
[6] = cytotoxicity toward NIH3T3 fibroblasts, dose response, counter-screen, cell-based, ATP luminescence, mouse fibroblasts (AID 2010); format: functional;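 also: cells exposed to compound for about 90 hours before reading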
[7] = nonselective inhibitors of cellular cAMP signaling, dose response, counter-screen for MC4R biased antagonist project, cell-based, TR-FRET cAMP detection (AID 602305); format: functional;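 also: U2OS cells stimulated with forskolin near its EC80 as the cAMP inducer; potency is for inhibition of forskolin-stimulated cAMP signaling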
Streptococcus = assay: Group A Streptococcus viability loss, dose response, counter-screen for streptokinase expression inhibitor project, luminescence, BacTiterGlo (AID 1915); format: functional, organism-based; conditions: read-out: EC50;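 also: potency for reduction of bacterial viability or growth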
Streptokinase A = target: T1, Streptokinase A (Streptococcus pyogenes serotype M1, UniProt P10520); assay: S. pyogenes streptokinase expression inhibitors, potency, dose response, plasminogen activation absorbance, OD405 (AID 1914); format: functional, Streptococcus pyogenes M1 GAS;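 also: secreted streptokinase activity via plasminogen activation per viability signal from cell pellet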
T1 sequence (P10520 whole entry): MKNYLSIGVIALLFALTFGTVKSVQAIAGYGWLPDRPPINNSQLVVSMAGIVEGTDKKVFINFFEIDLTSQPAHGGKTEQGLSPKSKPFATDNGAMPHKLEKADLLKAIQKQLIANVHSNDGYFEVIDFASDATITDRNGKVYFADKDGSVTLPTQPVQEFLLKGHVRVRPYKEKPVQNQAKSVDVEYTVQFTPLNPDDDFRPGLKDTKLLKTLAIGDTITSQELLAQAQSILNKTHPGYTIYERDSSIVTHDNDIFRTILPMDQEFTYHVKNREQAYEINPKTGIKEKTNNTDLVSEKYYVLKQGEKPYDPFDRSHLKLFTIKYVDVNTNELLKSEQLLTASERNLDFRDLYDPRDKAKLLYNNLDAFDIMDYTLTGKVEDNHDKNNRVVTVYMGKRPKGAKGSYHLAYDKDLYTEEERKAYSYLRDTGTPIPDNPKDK

Cytochrome P450 2C9 = Cytochrome P450 2C9 (Homo sapiens, UniProt P11712)
Chain of Cytochrome P450 2C9 (P11712 whole entry): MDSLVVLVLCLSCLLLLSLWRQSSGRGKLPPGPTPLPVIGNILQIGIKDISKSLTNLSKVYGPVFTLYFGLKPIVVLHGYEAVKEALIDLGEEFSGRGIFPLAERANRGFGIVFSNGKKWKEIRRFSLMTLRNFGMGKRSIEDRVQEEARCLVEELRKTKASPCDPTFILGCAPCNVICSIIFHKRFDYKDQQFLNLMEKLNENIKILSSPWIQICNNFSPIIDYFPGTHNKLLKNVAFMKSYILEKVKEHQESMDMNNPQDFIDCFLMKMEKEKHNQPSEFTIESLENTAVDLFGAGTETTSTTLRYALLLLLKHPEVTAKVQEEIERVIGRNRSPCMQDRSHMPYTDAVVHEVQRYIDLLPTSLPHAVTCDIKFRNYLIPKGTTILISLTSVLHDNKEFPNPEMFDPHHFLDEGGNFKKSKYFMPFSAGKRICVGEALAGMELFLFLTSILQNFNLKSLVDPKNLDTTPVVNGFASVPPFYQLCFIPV

[8] = target: T2, Short transient receptor potential channel 4 (Mus musculus, UniProt Q9QUQ5); assay: mouse TRPC4 channel activators, dose response, cell-based, HEK293 TRPC4/mu-opioid, Fluo-4 calcium (AID 434937); format: functional
T2 sequence (Q9QUQ5 whole entry): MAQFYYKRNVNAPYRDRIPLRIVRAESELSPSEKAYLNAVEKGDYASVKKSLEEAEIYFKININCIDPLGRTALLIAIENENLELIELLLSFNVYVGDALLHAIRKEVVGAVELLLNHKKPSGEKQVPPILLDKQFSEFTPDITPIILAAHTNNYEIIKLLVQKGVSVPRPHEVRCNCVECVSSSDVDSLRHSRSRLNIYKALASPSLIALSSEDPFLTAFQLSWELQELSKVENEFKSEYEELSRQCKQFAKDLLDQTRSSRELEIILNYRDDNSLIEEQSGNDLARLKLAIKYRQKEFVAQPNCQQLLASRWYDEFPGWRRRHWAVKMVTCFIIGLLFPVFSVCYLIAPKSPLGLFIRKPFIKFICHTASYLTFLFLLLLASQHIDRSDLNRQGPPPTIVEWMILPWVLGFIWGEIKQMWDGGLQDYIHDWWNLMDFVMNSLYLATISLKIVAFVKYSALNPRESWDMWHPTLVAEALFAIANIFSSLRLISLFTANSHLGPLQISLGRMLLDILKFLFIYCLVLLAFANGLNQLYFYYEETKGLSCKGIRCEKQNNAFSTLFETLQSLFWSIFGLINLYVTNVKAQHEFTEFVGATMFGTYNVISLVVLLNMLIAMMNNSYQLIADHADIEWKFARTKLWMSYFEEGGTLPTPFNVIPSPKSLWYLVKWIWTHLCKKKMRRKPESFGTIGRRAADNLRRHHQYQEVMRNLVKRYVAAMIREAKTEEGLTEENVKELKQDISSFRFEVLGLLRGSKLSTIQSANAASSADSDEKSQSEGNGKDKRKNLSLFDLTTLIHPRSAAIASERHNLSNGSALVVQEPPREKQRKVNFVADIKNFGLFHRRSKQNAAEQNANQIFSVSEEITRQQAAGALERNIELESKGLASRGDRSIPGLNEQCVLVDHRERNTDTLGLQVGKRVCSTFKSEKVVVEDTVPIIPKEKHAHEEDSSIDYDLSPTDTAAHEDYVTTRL

Vero = assay: cells; format: functional; conditions: Chlorocebus sabaeus
[9] = target: T2, Short transient receptor potential channel 4; assay: mouse TRPC4 channel inhibitors, dose response, cell-based, HEK293 TRPC4/mu-opioid, Fluo-4 calcium (AID 434942); format: functional;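 also: potency of inhibitors blocking the TRPC4 calcium response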
H9c2 = assay: cells; format: functional, cell-based; conditions: Rattus norvegicus, H9c2, Myocardium;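 also: confirmatory concentration-response retest of ultra-high-throughput screening hits for modulation of myocardial damage; cell death induced by hydrogen peroxide oxidative stress; compound pretreatment for 60 min then peroxide exposure for 2 h; potency is for protecting the cells against peroxide damage rather than for killing them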
[10] = target: T3, Corticotropin-releasing factor receptor 2/Corticotropin-releasing factor-binding protein (Homo sapiens, UniProt P24387+Q13324); assay: activators of CRF receptor 2 with binding protein – uHTS hits, confirmation (AID 602473); format: functional; conditions: read-out: EC50_Mean
T3 sequence (Q13324 whole entry): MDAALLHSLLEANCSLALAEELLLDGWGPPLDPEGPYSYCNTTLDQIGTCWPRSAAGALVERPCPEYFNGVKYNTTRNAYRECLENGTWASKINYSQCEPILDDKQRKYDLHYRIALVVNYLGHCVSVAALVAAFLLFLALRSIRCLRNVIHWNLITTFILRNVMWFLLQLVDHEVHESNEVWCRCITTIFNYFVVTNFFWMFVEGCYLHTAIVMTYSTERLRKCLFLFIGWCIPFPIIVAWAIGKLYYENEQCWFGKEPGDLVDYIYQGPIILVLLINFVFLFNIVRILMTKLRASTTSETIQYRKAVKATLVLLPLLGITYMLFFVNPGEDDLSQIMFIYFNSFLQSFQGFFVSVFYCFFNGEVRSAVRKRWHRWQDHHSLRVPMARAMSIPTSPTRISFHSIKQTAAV
T3 sequence (P24387 whole entry): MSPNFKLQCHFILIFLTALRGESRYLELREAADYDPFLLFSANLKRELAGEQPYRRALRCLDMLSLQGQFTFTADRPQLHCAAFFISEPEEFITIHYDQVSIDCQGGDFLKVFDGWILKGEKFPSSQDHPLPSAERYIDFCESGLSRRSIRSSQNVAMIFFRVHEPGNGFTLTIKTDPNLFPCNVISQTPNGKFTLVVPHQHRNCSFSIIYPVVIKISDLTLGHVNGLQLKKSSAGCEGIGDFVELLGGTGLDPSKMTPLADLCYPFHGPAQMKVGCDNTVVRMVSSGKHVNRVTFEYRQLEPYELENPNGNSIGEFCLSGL

[11] = target: T3, Corticotropin-releasing factor receptor 2/Corticotropin-releasing factor-binding protein; assay: Dose Response confirmation of uHTS hits for small molecule antagonists of the CRF-binding protein and CRF-R2 receptor complex.; format: functional; conditions: read-out: IC50_Mean
[12] = target: Luciferin 4-monooxygenase (Photinus pyralis, UniProt P08659); assay: firefly luciferase enzyme inhibitors, dose response, biochemical, luminescence (AID 1891)
Chain of Luciferin 4-monooxygenase (P08659 whole entry): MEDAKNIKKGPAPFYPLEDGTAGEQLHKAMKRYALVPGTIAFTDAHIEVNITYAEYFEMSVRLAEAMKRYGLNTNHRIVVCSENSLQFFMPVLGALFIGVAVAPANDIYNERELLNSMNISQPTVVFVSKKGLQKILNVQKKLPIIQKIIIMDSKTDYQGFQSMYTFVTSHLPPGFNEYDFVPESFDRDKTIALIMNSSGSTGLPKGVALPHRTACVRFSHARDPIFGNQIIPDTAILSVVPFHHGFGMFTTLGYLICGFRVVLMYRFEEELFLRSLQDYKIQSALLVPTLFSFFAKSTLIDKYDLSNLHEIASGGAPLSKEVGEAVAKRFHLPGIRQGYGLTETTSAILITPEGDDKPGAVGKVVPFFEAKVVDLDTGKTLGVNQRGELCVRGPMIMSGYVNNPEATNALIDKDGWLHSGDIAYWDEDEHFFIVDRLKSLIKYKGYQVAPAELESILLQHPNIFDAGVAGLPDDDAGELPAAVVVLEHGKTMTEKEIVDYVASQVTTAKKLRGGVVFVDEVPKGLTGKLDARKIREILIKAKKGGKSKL

[13] = Luminescence Cell-Based Dose Confirmation HTS to Identify Inhibitors of Platelet Dense Granule Release. [Related pubchem assays: 1663 (Primary HTS), 1678 (Summary of Project)]; format: functional
Cytochrome P450 2C19 = Cytochrome P450 2C19 (Homo sapiens, UniProt P33261); assay: Cytochrome panel assay with activity outcomes. Panel member name: p450-cyp2c19 Compounds with AC50 equal or less than 10 uM are considered active; format: functional; conditions: read-out: AC50
Chain of Cytochrome P450 2C19 (P33261 whole entry): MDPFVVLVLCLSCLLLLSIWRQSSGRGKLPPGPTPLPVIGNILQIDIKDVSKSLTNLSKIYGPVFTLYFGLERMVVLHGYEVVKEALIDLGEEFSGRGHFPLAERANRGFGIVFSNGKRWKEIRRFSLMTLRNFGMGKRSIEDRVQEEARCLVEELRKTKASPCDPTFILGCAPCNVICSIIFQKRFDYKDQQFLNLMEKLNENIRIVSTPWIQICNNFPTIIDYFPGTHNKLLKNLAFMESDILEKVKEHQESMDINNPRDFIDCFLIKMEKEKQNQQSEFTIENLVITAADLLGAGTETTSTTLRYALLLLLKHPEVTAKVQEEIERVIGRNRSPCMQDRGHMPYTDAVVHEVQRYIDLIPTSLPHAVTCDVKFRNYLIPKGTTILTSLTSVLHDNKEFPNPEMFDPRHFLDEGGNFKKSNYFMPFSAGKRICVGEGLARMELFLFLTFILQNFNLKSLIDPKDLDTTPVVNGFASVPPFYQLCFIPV

Cytochrome P450 3A4 = Cytochrome P450 3A4 (Homo sapiens, UniProt P08684);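 also: CYP3A4 tested as one member of a cytochrome P450 panel screen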
Chain of Cytochrome P450 3A4 (P08684 whole entry): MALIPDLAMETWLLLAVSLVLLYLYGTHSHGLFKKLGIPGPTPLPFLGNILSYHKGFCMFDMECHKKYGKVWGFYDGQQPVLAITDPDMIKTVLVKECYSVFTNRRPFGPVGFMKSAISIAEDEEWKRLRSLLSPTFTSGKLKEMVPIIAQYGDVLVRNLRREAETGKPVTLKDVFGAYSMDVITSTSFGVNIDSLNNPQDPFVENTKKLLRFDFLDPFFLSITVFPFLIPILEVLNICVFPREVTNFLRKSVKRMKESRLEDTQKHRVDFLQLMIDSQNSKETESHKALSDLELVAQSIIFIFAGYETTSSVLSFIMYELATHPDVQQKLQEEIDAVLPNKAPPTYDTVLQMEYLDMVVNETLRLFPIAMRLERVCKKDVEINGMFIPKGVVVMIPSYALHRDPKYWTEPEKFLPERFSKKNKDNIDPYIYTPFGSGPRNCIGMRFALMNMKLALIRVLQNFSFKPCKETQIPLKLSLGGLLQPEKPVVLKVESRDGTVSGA

[14] = Luminescence Cell-Based Dose Response HTS to Identify Activators of Luciferase Translation or Activity in H4 […] Cells. [Related pubchem assays: 1829 (Project Summary), 1814 (Primary HTS)]; format: functional
H4 = assay: Luminescence Cell-Based Dose Response HTS to Identify Activators of 5'UTR Stem-Loop Driven Prion Protein mRNA Translation in H4 Neuroglioblastoma Cells. [Related pubchem assays: 1829 (Project Summary), 1814 (Primary HTS)]; format: functional; conditions: Homo sapiens
[15] = Luminescence Cell-Based Dose Confirmation HTS to Identify Activators of 5'UTR Stem-Loop Driven Alpha-Synuclein mRNA Translation in H4 Neuroglioblastoma Cells. [Related pubchem assays: 1829 (Project Summary), 1814 (Primary HTS)]; format: functional

Chain of Cytochrome P450 2D6 (P10635 whole entry): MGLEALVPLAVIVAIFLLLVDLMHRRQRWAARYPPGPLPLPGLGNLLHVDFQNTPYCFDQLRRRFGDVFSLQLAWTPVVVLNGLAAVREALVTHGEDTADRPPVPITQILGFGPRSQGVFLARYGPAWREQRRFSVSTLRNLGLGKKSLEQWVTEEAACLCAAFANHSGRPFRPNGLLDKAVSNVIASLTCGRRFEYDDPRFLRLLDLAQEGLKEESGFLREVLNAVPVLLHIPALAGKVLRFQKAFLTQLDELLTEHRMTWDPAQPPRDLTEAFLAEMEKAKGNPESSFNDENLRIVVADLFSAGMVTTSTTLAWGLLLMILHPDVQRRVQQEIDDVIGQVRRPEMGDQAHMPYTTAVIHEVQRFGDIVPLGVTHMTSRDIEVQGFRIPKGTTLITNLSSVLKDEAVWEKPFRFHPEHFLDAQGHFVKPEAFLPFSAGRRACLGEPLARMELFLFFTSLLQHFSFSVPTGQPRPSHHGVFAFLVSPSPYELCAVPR

Structure (SMILES): Cc1cc(O)c(C(C)C)cc1C1(c2cc(C(C)C)c(O)cc2C)OC(=O)c2ccccc21
- AC50 (Cytochrome P450 2D6): 3.98 µM (inconclusive)
- AC50 [1]: 18.8 µM (active)
- AC50 [2]: 1.71 µM (active)
- AC50 (Paired box protein Pax-8): 8.19 µM (active)
- IC50 (Melanocortin receptor 4): > 64.6 µM (inactive)
- EC50 [3]: 2.11 µM (active)
- EC50 [4]: 1.24 µM (active)
- AC50 [5]: 9.45 µM (active)
- EC50 [6]: > 60 µM (not active)
- IC50 [7]: > 64.6 µM (inactive)
- EC50 (Streptococcus): 3.87 µM (active)
- EC50 (Streptokinase A): > 150 µM (not active)

Structure (SMILES): FC(F)(F)c1ccccc1-c1nccc(N2CCNCC2)n1
- AC50 (Cytochrome P450 2C9): inconclusive

Structure (SMILES): Cc1sc2ncnc(NCC(c3ccco3)N(C)C)c2c1C (stereo unspecified)
- EC50 [8]: 0.841 µM (active)

Structure (SMILES): COc1cc(C(=O)NC(=S)NNC(=O)c2ccc3c(c2)OCO3)cc(OC)c1OC
- CC50 (Vero): 20.2 µM (active)

Structure (SMILES): CCn1c(-c2ccccc2Cl)nn(CC(=O)Nc2ccccc2OC)c1=S
- AC50 (Cytochrome P450 2C9): inconclusive

Structure (SMILES): Cn1c(S)nnc1-c1cccc2ccccc12
- EC50 [8]: 0.841 µM (active)

Structure (SMILES): Brc1cc2c(cc1COc1ccc(-c3nn[nH]n3)cc1)OCO2
- EC50 [9]: 5.31 µM (active)

Structure (SMILES): COC(=O)c1c(NC(=O)COC(=O)c2ccc(Cl)cc2[N+](=O)[O-])sc2c1CCCCC2
- IC50 (Melanocortin receptor 4): > 64.6 µM (inactive)
- IC50 [7]: > 64.6 µM (inactive)

Structure (SMILES): CCN(CC)S(=O)(=O)c1ccc(Cl)c(C(=O)OC2CC(C)OC2=O)c1 (stereo unspecified)
- IC50 (Melanocortin receptor 4): > 64.6 µM (inactive)
- IC50 [7]: > 64.6 µM (inactive)

Structure (SMILES): COc1ccc2sc(-c3ccc(S(C)(=O)=O)cc3)c(-c3ccc(C(N)=O)cc3)c2c1
- IC50 (Melanocortin receptor 4): 11.5 µM (inactive)
- IC50 [7]: 25.1 µM (inactive)

Structure (SMILES): COc1cc(OC)c2ccc(=O)oc2c1C(CC(=O)N1CCN(c2ccccc2)CC1)c1ccc2c(c1)OCO2 (stereo unspecified)
- IC50 (H9c2): > 79 µM (inactive)

Structure (SMILES): COc1ccc(C2=NOC(COc3ccc4c(C)cc(=O)oc4c3)C2)c(OC)c1 (stereo unspecified)
- CC50 (Vero): 7.23 µM (active)

Structure (SMILES): O=C(NCc1ccccc1)C1=C[C@H](c2ccccc2)C[C@H](OCc2ccc(CO)cc2)O1
- EC50 [8]: 1.06 µM (active)
- EC50 [10]: > 53 µM (inactive)
- IC50 [11]: > 47.1 µM (inactive)

Structure (SMILES): CC(=O)C1=C(O)C(=O)N(Cc2ccccc2)C1c1ccc([N+](=O)[O-])cc1 (stereo unspecified)
- EC50 [9]: 1.19 µM (active)

Structure (SMILES): CC(=O)c1c(C)nn(CC(=O)NC2CCCN(Cc3ccc(CC(C)C)cc3)C2)c1C (stereo unspecified)
- EC50 [8]: 1.19 µM (active)
- EC50 [12]: > 112 µM (not active)
- EC50 [13]: > 112 µM (not active)

Structure (SMILES): COc1ccc(C(=O)c2ccccc2)cc1Br
- AC50 (Cytochrome P450 2D6): 22.4 µM (inconclusive)
- AC50 (Cytochrome P450 2C9): inconclusive

Structure (SMILES): COc1ccc(C)cc1N(C(=O)c1snc(C(N)=O)c1N)C(C(=O)NC1CCCCC1)c1ccc(C)o1 (stereo unspecified)
- EC50 [9]: 0.211 µM (active)

Structure (SMILES): N#Cc1nc(-c2ccc(F)cc2)oc1N1CCCC1
- AC50 (Cytochrome P450 2C9): inconclusive
- AC50 (Cytochrome P450 2C19): 14.1 µM (inconclusive)
- AC50 (Cytochrome P450 3A4): 14.1 µM (inconclusive)

Structure (SMILES): COc1ccccc1C(=O)N/N=C(\C)c1ccc(NC(=O)Cc2ccccc2)cc1
- EC50 [14]: > 120 µM (not active)
- EC50 (H4): > 120 µM (not active)
- EC50 [15]: > 120 µM (not active)

Structure (SMILES): O=C(NCC(=O)N(Cc1ccccc1)C(C(=O)NC1CCCCC1)c1ccco1)c1ccco1 (stereo unspecified)
- IC50 (H9c2): 42.2 µM (inactive)

Structure (SMILES): Cc1nnsc1SCC(=O)O
- AC50 (Cytochrome P450 2C9): inconclusive

Structure (SMILES): NC(=O)c1cccc(Nc2nc(C(N)CCc3ccccc3)cs2)n1 (stereo unspecified)
- IC50 (H9c2): 18.3 µM (active)

Structure (SMILES): CC(=O)Nc1ccc(S(=O)(=O)Nc2nc3ccc(C)cc3s2)cc1
- EC50 [9]: 3.76 µM (active)
